Results reported in patent publication US10138230B2, “Autotaxin inhibitors” (CANCER RESEARCH TECHNOLOGY LIMITED, priority 2015, dated 2018).
pIC50: −log10 of the molar value. Where a name gives a salt, the structure may show the parent alone.

molecular target: human recombinant ATX (Homo sapiens (Human), UniProt Q13822); assay: Autotaxin (ATX) activity Quanta Red assay; type: biochemical; details: 15 μM Rac-1-Palmitoyl-glycero-3-phosphocholine, 2 hours room temperature, determined in duplicate
Procedure: The ATX enzyme assay (Quanta Red assay) described in accompanying Example section may be used to measure the pharmacological effects of the compounds of the present invention.
Autotaxin (ATX) Activity Quanta Red Assay
Measuring ATX activity using an enzyme coupled Quanta Red assay (Thermo Scientific—Pierce Protein Research Products, Product #15159) was determined as follows. 8 μL human recombinant ATX (final concentration 0.8 μg/mL) in 1× Assay buffer containing 50 mM Tris-HCl (pH 8.0), 5 mM CaCl2 was added to an opaque black flat-bottom 384-well plate (Corning, #3575) containing 2 μL test compound in 40% DMSO (4% final DMSO concentration). 10 μL of Quanta Red, Horseradish peroxidase (HRP), Choline Oxidase (CO), Rac-1-Palmitoyl-glycero-3-phosphocholine solution (final concentration 1:250 for Quanta Red, 0.5units/ml HRP, 0.5units/ml CO, 15 μM Rac-1-Palmitoyl-glycero-3-phosphocholine) in 1× assay buffer (as described previously) was added to each well to start the reaction and the plate was incubated at room temperature for 2 hours. The reaction was stopped after 2 hours with a 20 μL addition of Quanta Red Stop solution (1:20 dilution in distilled water). The above-described mixture with DMSO alone was used as a positive control whereas that with DMSO alone without ATX was taken as a negative control.
For each test compound, ten concentrations were measured covering a range of 6.1 nM to 120 μM to determine IC50 values. The top concentration was decreased to 1.2 μM when a test compound's IC50 value was evaluated in low nanomolar range. Fluorescence was determined in a BMG Labtech Pherastar plus plate reader ([…]). Data were analysed using Excel fit software. IC50 values were determined in duplicate.

Going from `CC1CN(Cc2ccc(N3CC(C(=O)Nc4nnc(CCc5ccc(Cl)cc5)s4)CC3=O)cc2)C[C@H](C)O1` (stereo in doubt) [Compound F125, N-[5-[2-(4-chlorophenyl)ethyl]-1,3,4-thiadiazol-2-yl]-1-[4-[[(2S,6S)-2,6-dimethylmorpholin-4-yl]methyl]phenyl]-5-oxo-pyrrolidine-3-carboxamide] to `O=C(Nc1nnc(CCc2ccc(Cl)cc2)s1)[C@H]1CC(=O)N(c2ccc(CN3CC4CC4C3)cc2)C1` (stereo partly drawn) [Compound F103, (3S)-1-[4-(3-azabicyclo[3.1.0]hexan-3-ylmethyl)phenyl]-N-[5-[2-(4-chlorophenyl)ethyl]-1,3,4-thiadiazol-2-yl]-5-oxo-pyrrolidine-3-carboxamide], the pIC50 rises from 8.10 to 8.52 (0.42 log units).

`O=C(Nc1cc(CCc2ccc(Cl)cc2)on1)C1CC(=O)N(c2ccc(CN3CCCCC3)cc2)C1` (stereo in doubt) [Compound F146, (3S)-N-[5-[2-(4-chlorophenyyl)ethyl]isoxazol-3-yl]-5-oxo-1-[4-(1-piperidylmethyl)phenyl] pyrrolidine-3-carboxamide] and `O=C(Nc1nnc(CCc2ccc(Cl)cc2)s1)[C@H]1CC(=O)N(c2ccc(CN3CCCCC3)cc2)C1` [Compound F93, (3S)-N-[5-[2-(4-chlorophenyl)ethyl]-1,3,4-thiadiazol-2-yl]-5-oxo-1-[4-(1-piperidylmethyl)phenyl] pyrrolidine-3-carboxamide] are the same in pIC50: 9.00 for the first, 9.00 for the second.

`O=C(Nc1nnc(CCc2ccc(F)cc2)s1)[C@H]1CC(=O)N(c2ccc(CN3CCOCC3)cc2)C1` (stereo in doubt) [Compound F215, 1-(4-Morpholin-4-ylmethyl-phenyl)-5-oxo-pyrrolidine-3-carboxylic acid {5-[2-(4-fluoro-phenyl)-ethyl]-[1,3,4]thiadiazol-2-yl}-amide; hydrochloride] and `O=C(Nc1nnc(CCc2ccc(F)cc2)s1)[C@H]1CC(=O)N(c2ccc(CN3CCOCC3)cc2)C1` [Compound F108, (3S)-N-[5-[2-(4-fluorophenyl)ethyl]-1,3,4-thiadiazol-2-yl]-1-[4-(morpholinomethyl)phenyl]-5-oxo-pyrrolidine-3-carboxamide] are the same in pIC50: 8.52 for the first, 8.52 for the second.

`CN(Cc1ccc(N2C[C@@H](C(=O)Nc3nnc(CCc4ccc(Cl)cc4)s3)CC2=O)cc1)C1CCOC1` (stereo partly drawn) [Compound F87, (3S)-N-[5-[2-(4-chlorophenyl)ethyl]-1,3,4-thiadiazol-2-yl]-1-[4-[[methyl(tetrahydrofuran-3-yl)amino]methyl]phenyl]-5-oxo-pyrrolidine-3-carboxamide] and `CN(Cc1ccc(N2C[C@@H](C(=O)Nc3nnc(CCc4ccc(Cl)cc4)s3)CC2=O)cc1)C1COC1` [Compound F88, (3S)-N-[5-[2-(4-chlorophenyl)ethyl]-1,3,4-thiadiazol-2-yl]-1-[4-[[methyl(oxetan-3-yl)amino]methyl]phenyl]-5-oxo-pyrrolidine-3-carboxamide] are the same in pIC50: 9.00 for the first, 9.00 for the second.

First: O=C(Nc1nnc(CCc2ccc(Cl)cc2)s1)[C@H]1CC(=O)N(c2ccc(CN3CCOCC3)cc2)C1 [Compound F89, (3S)-N-[5-[2-(4-chlorophenyl)ethyl]-1,3,4-thiadiazol-2-yl]-1-[4-(morpholino-methyl)phenyl]-5-oxo-pyrrolidine-3-carboxamide]
Second: O=C(Nc1nnc(CCc2ccc(Cl)cc2)s1)C1CC(=O)N(c2ccc(CN3CCCOCC3)cc2)C1 (stereo not shown) [Compound F101, N-[5-[2-(4-chlorophenyl)ethyl]-1,3,4-thiadiazol-2-yl]-1-[4-(1,4-oxazepan-4-ylmethyl)phenyl]-5-oxo-pyrrolidine-3-carboxamide]
The pIC50 of the first is 0.48 log units higher: 9.00 for the first, 8.52 for the second. The first is the more potent here.

First: CN(Cc1ccc(N2C[C@@H](C(=O)Nc3nnc(CCc4ccc(Cl)cc4)s3)CC2=O)cc1)C1CCOCC1 [Compound F90, (3S)-N-[5-[2-(4-chlorophenyl)ethyl]-1,3,4-thiadiazol-2-yl]-1-[4-[[methyl(tetrahydropyran-4-yl)amino]methyl]phenyl]-5-oxo-pyrrolidine-3-carboxamide]
Second: O=C(Nc1nnc(CCc2ccc(Cl)cc2)s1)C1CC(=O)N(c2ccc(CNC3CCOCC3)cc2)C1 (stereo not shown) [Compound F105, 5-oxo-1-{4-[(tetrahydro-pyran-4-ylamino)-methyl]-phenyl}-pyrrolidine-3-carboxylic acid {5-[2-(4-chloro-phenyl)-ethyl]-[1,3,4]thiadiazol-2-yl}-amide; hydrochloride]
The pIC50 of the first is 0.48 log units higher: 9.00 for the first, 8.52 for the second. The first is the more potent here.

First: O=C(Nc1nnc(CCc2ccc(Cl)cc2)s1)[C@H]1CC(=O)N(c2ccc(CN3CCCCCC3)cc2)C1 [Compound F91, (3S)-1-[4-(azepan-1-ylmethyl)phenyl]-N-[5-[2-(4-chlorophenyl)ethyl]-1,3,4-thiadiazol-2-yl]-5-oxo-pyrrolidine-3-carboxamide]
Second: O=C(Nc1nnc(CCc2ccc(Cl)cc2)s1)C1CC(=O)N(c2ccc(CN3CCCCC3)cc2)C1 (stereo not shown) [Compound F99, N-[5-[2-(4-chlorophenyl)ethyl]-1,3,4-thiadiazol-2-yl]-5-oxo-1-[4-(1-piperidylmethyl)phenyl] pyrrolidine-3-carboxamide]
The pIC50 of the first is 0.30 log units higher: 9.00 for the first, 8.70 for the second.

Going from `CC1CCN(Cc2ccc(N3C[C@@H](C(=O)Nc4nnc(CCc5ccc(Cl)cc5)s4)CC3=O)cc2)CC1` [Compound F92, (S)-1-[4-(4-methyl-piperidin-1-ylmethyl)-phenyl]-5-oxo-pyrrolidine-3-carboxylic acid {5-[2-(4-chloro-phenyl)-ethyl]-[1,3,4]thiadiazol-2-yl}-amide] to `CC1CCN(Cc2ccc(N3CC(C(=O)Nc4nnc(CCc5ccc(Cl)cc5)s4)CC3=O)cc2)CC1` (stereo not shown) [Compound F95, 1-[4-(4-methyl-piperidin-1-ylmethyl)-phenyl]-5-oxo-pyrrolidine-3-carboxylic acid {5-[2-(4-chloro-phenyl)-ethyl]-[1,3,4]thiadiazol-2-yl}-amide], the pIC50 falls from 9.00 to 8.70 (0.30 log units). The first is the more potent here.

Compared with `COCCN(C)Cc1ccc(N2C[C@@H](C(=O)Nc3nnc(CCc4ccc(Cl)cc4)s3)CC2=O)cc1` [Compound F94, (3S)-N-[5-[2-(4-chlorophenyl)ethyl]-1,3,4-thiadiazol-2-yl]-1-[4-[[2-methoxyethyl(methyl)amino]methyl]phenyl]-5-oxo-pyrrolidine-3-carboxamide], `COCCN(C)Cc1ccc(N2CC(C(=O)Nc3nnc(CCc4ccc(Cl)cc4)s3)CC2=O)cc1` (stereo not shown) [Compound F100, N-[5-[2-(4-chlorophenyl)ethyl]-1,3,4-thiadiazol-2-yl]-1-[4-[[2-methoxyethyl(methyl)amino]methyl]phenyl]-5-oxo-pyrrolidine-3-carboxamide] is 0.30 log units lower in pIC50: 9.00 for the first, 8.70 for the second.

`O=C(Nc1nnc(CCC2CCCCC2)s1)C1CC(=O)N(c2ccc(CN3CCCOCC3)cc2)C1` (stereo not shown) [Compound F96, N-[5-(2-cyclohexylethyl)-1,3,4-thiadiazol-2-yl]-1-[4-(1,4-oxazepan-4-ylmethyl)phenyl]-5-oxo-pyrrolidine-3-carboxamide] and `O=C(Nc1nnc(CCC2CCCCC2)s1)C1CC(=O)N(c2ccc(CN3CCCCC3)cc2)C1` (stereo not shown) [Compound F106, N-[5-(2-cyclohexylethyl)-1,3,4-thiadiazol-2-yl]-5-oxo-1-[4-(1-piperidylmethyl)phenyl] pyrrolidine-3-carboxamide] are within 0.2 log units of each other in pIC50: 8.70 for the first, 8.52 for the second.

`O=C(Nc1nnc(CCc2ccc(C(F)(F)F)cc2)s1)[C@H]1CC(=O)N(c2ccc(CN3CCOCC3)cc2)C1` [Compound F97, (3S)-1-[4-(morpholinomethyl)phenyl]-5-oxo-N-[5-[2-[4-(trifluoromethyl)phenyl]ethyl]-1,3,4-thiadiazol-2-yl]pyrrolidine-3-carboxamide] and `O=C(Nc1nnc(CCc2ccc(Cl)cc2)s1)[C@H]1CC(=O)N(c2ccc(CN3CCCOCC3)cc2)C1` [Compound F104, (3S)-N-[5-[2-(4-chlorophenyl)ethyl]-1,3,4-thiadiazol-2-yl]-1-[4-(1,4-oxazepan-4-ylmethyl)phenyl]-5-oxo-pyrrolidine-3-carboxamide] are within 0.2 log units of each other in pIC50: 8.70 for the first, 8.52 for the second.

`CCN(CC)Cc1ccc(N2CC(C(=O)Nc3nnc(CCc4ccc(Cl)cc4)s3)CC2=O)cc1` (stereo not shown) [Compound F98, N-[5-[2-(4-chlorophenyl)ethyl]-1,3,4-thiadiazol-2-yl]-1-[4-(diethylaminomethyl)phenyl]-5-oxo-pyrrolidine-3-carboxamide] and `O=C(Nc1nnc(CCc2ccc(Cl)cc2)s1)C1CC(=O)N(c2ccc(CN3CC4CC4C3)cc2)C1` (stereo not shown) [Compound F110, 1-[4-(3-azabicyclo[3.1.0]hexan-3-ylmethyl)phenyl]-N-[5-[2-(4-chlorophenyl)ethyl]-1,3,4-thiadiazol-2-yl]-5-oxo-pyrrolidine-3-carboxamide] are within 0.2 log units of each other in pIC50: 8.70 for the first, 8.52 for the second.

`O=C(Nc1nnc(CCc2ccc(Cl)cc2)s1)C1CC(=O)N(c2ccc(CN3CCC(O)CC3)cc2)C1` (stereo not shown) [Compound F102, N-[5-[2-(4-chlorophenyl)ethyl]-1,3,4-thiadiazol-2-yl]-1-[4-[(4-hydroxy-1-piperidyl)methyl]phenyl]-5-oxo-pyrrolidine-3-carboxamide] gave a pIC50 of 8.52.
